Laboratory results reported in PubChem BioAssay (NCI).
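Exposure lasted 48 hours, with cells grown in 96-well plates and compounds tested at five concentrations. GI50 marks 50% less growth. TGI denotes the concentration required for complete inhibition of growth.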

Key:
Test in all cases: growth of human tumour cells (NCI), 48 h
SF-268 CNS = tested on: SF-268 CNS
COLO 205 colon = tested on: COLO 205 colon
NCI-H522 lung = tested on: NCI-H522 lung
MALME-3M melanoma = tested on: MALME-3M melanoma
786-0 renal = tested on: 786-0 renal
SF-539 CNS = tested on: SF-539 CNS
NCI/ADR-RES ovarian = tested on: NCI/ADR-RES ovarian
UACC-257 melanoma = tested on: UACC-257 melanoma
ACHN renal = tested on: ACHN renal
SK-MEL-5 melanoma = tested on: SK-MEL-5 melanoma
SN12C renal = tested on: SN12C renal
LOX IMVI melanoma = tested on: LOX IMVI melanoma
SK-MEL-28 melanoma = tested on: SK-MEL-28 melanoma
NCI-H460 lung = tested on: NCI-H460 lung
DU-145 prostate = tested on: DU-145 prostate
MDA-MB-435 = tested on: MDA-MB-435
MCF7 breast = tested on: MCF7 breast
OVCAR-5 ovarian = tested on: OVCAR-5 ovarian
SW-620 colon = tested on: SW-620 colon
TK-10 renal = tested on: TK-10 renal
HT29 colon = tested on: HT29 colon
HCT-116 colon = tested on: HCT-116 colon
A549 NSCLC = tested on: A549 NSCLC
MOLT-4 leukemia = tested on: MOLT-4 leukemia
SK-MEL-2 melanoma = tested on: SK-MEL-2 melanoma
NCI-H226 lung = tested on: NCI-H226 lung
PC-3 prostate = tested on: PC-3 prostate
UACC-62 melanoma = tested on: UACC-62 melanoma
OVCAR-8 ovarian = tested on: OVCAR-8 ovarian
K-562 leukemia = tested on: K-562 leukemia
M14 melanoma = tested on: M14 melanoma
OVCAR-4 ovarian = tested on: OVCAR-4 ovarian
A498 renal = tested on: A498 renal
KM12 colon = tested on: KM12 colon
SK-OV-3 ovarian = tested on: SK-OV-3 ovarian
CCRF-CEM leukemia = tested on: CCRF-CEM leukemia
HS 578T breast = tested on: HS 578T breast
SR leukemia = tested on: SR leukemia
OVCAR-3 ovarian = tested on: OVCAR-3 ovarian
IGROV1 ovarian = tested on: IGROV1 ovarian
HOP-92 NSCLC = tested on: HOP-92 NSCLC
MDA-MB-231 breast = tested on: MDA-MB-231 breast
SNB-19 CNS = tested on: SNB-19 CNS
BT-549 breast = tested on: BT-549 breast
T-47D breast = tested on: T-47D breast
U251 CNS = tested on: U251 CNS
RPMI-8226 leukemia = tested on: RPMI-8226 leukemia
NCI-H23 lung = tested on: NCI-H23 lung
HCC-2998 colon = tested on: HCC-2998 colon
HL-60(TB) leukemia = tested on: HL-60(TB) leukemia
RXF 393 renal = tested on: RXF 393 renal
HOP-62 NSCLC = tested on: HOP-62 NSCLC
CAKI-1 renal = tested on: CAKI-1 renal
UO-31 renal = tested on: UO-31 renal
HCT-15 colon = tested on: HCT-15 colon

CC(=O)OC1CCC2(C)C(CCC3C4CC=C(C(C)=O)C4(C)OC(=O)CC32)C1 (stereo not given)
GI50 (SF-268 CNS): 5.2 µM | TGI (SF-268 CNS): 17.8 µM | GI50 (COLO 205 colon): 1.64 µM | TGI (COLO 205 colon): 3.02 µM | GI50 (NCI-H522 lung): 1.22 µM | TGI (NCI-H522 lung): 2.64 µM | GI50 (MALME-3M melanoma): 1.61 µM | TGI (MALME-3M melanoma): 3.67 µM | GI50 (786-0 renal): 2.52 µM | TGI (786-0 renal): 6.59 µM | GI50 (SF-539 CNS): 1.8 µM | TGI (SF-539 CNS): 3.55 µM | GI50 (NCI/ADR-RES ovarian): 3.45 µM | TGI (NCI/ADR-RES ovarian): 13 µM | GI50 (UACC-257 melanoma): 1.42 µM | TGI (UACC-257 melanoma): 2.98 µM | GI50 (ACHN renal): 1.3 µM | TGI (ACHN renal): 2.61 µM | GI50 (SK-MEL-5 melanoma): 2.13 µM | TGI (SK-MEL-5 melanoma): 4.95 µM | GI50 (SN12C renal): 3.26 µM | TGI (SN12C renal): 13.6 µM | GI50 (LOX IMVI melanoma): 1.61 µM | TGI (LOX IMVI melanoma): 3.17 µM | GI50 (SK-MEL-28 melanoma): 1.74 µM | TGI (SK-MEL-28 melanoma): 3.27 µM | GI50 (NCI-H460 lung): 5.02 µM | TGI (NCI-H460 lung): 19.3 µM | GI50 (DU-145 prostate): 2.36 µM | TGI (DU-145 prostate): 6.1 µM | GI50 (MDA-MB-435): 1.71 µM | TGI (MDA-MB-435): 4.66 µM | GI50 (MCF7 breast): 1.4 µM | TGI (MCF7 breast): 3.01 µM | GI50 (OVCAR-5 ovarian): 2.75 µM | TGI (OVCAR-5 ovarian): 7.63 µM | GI50 (SW-620 colon): 1.52 µM | TGI (SW-620 colon): 3.43 µM | GI50 (TK-10 renal): 2.05 µM | TGI (TK-10 renal): 4.77 µM | GI50 (HT29 colon): 1.6 µM | TGI (HT29 colon): 3.09 µM | GI50 (HCT-116 colon): 1.13 µM | TGI (HCT-116 colon): 2.62 µM | GI50 (A549 NSCLC): 7.22 µM | TGI (A549 NSCLC): 23.1 µM | GI50 (MOLT-4 leukemia): 2.29 µM | TGI (MOLT-4 leukemia): 6.41 µM | GI50 (SK-MEL-2 melanoma): 2.91 µM | TGI (SK-MEL-2 melanoma): 8.42 µM | GI50 (NCI-H226 lung): 1.95 µM | TGI (NCI-H226 lung): 4.32 µM | GI50 (PC-3 prostate): 4.56 µM | TGI (PC-3 prostate): 16.7 µM | GI50 (UACC-62 melanoma): 1.72 µM | TGI (UACC-62 melanoma): 3.53 µM | GI50 (OVCAR-8 ovarian): 2.13 µM | TGI (OVCAR-8 ovarian): 7.49 µM | GI50 (K-562 leukemia): 3.35 µM | TGI (K-562 leukemia): 10.3 µM | GI50 (M14 melanoma): 1.71 µM | TGI (M14 melanoma): 3.51 µM | GI50 (OVCAR-4 ovarian): 1.7 µM | TGI (OVCAR-4 ovarian): 3.31 µM | GI50 (A498 renal): 6.59 µM | TGI (A498 renal): 19.9 µM | GI50 (KM12 colon): 9.83 µM | TGI (KM12 colon): 22.7 µM | GI50 (SK-OV-3 ovarian): 11.1 µM | TGI (SK-OV-3 ovarian): 23.1 µM | GI50 (CCRF-CEM leukemia): 1.3 µM | TGI (CCRF-CEM leukemia): 4.87 µM | GI50 (HS 578T breast): 3.79 µM | TGI (HS 578T breast): 29.8 µM | GI50 (SR leukemia): 0.382 µM | TGI (SR leukemia): 18.2 µM | GI50 (OVCAR-3 ovarian): 1.63 µM | TGI (OVCAR-3 ovarian): 3.04 µM | GI50 (IGROV1 ovarian): 2.88 µM | TGI (IGROV1 ovarian): 10.3 µM | GI50 (HOP-92 NSCLC): 1.74 µM | TGI (HOP-92 NSCLC): 4.21 µM | GI50 (MDA-MB-231 breast): 2.05 µM | TGI (MDA-MB-231 breast): 4.33 µM | GI50 (SNB-19 CNS): 13.3 µM | TGI (SNB-19 CNS): 27.9 µM | GI50 (BT-549 breast): 1.58 µM | TGI (BT-549 breast): 3.08 µM | GI50 (T-47D breast): 1.64 µM | TGI (T-47D breast): 3.4 µM | GI50 (U251 CNS): 10.1 µM | TGI (U251 CNS): 21.8 µM | GI50 (RPMI-8226 leukemia): 1.79 µM | TGI (RPMI-8226 leukemia): 4.86 µM | GI50 (NCI-H23 lung): 2.9 µM | TGI (NCI-H23 lung): 10.6 µM | GI50 (HCC-2998 colon): 2.21 µM | TGI (HCC-2998 colon): 4.06 µM | GI50 (HL-60(TB) leukemia): 2.05 µM | TGI (HL-60(TB) leukemia): 5.05 µM | GI50 (RXF 393 renal): 1.15 µM | TGI (RXF 393 renal): 2.51 µM | GI50 (HOP-62 NSCLC): 4.06 µM | TGI (HOP-62 NSCLC): 14.7 µM | GI50 (CAKI-1 renal): 2.54 µM | TGI (CAKI-1 renal): 9 µM | GI50 (UO-31 renal): 2.05 µM | TGI (UO-31 renal): 7.89 µM | GI50 (HCT-15 colon): 1.13 µM | TGI (HCT-15 colon): 2.61 µM
